Source: ChEMBL document CHEMBL1201862, “PubChem BioAssay data set” (2004)
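These data come from cells grown in 96-well plates and exposed to compound for 48 hours at five concentrations. The concentration for 50% growth inhibition is given as GI50.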 Activity calls are given as the source filed them. Cut-off read from the data, not from the text of the source: active = GI50 up to about 1.1 µM and inactive = higher. Square brackets hold non-standard residues; d marks the D form. Peptide text beside a SMILES is read from it. pGlu = O=C1CC[CH](C(=O)O)N1

Experiments:
Assay in all cases: DTP human tumour cell line panel, 48 h
[1] = tested on: SR
[2] = tested on: BT-549
[3] = tested on: Hs-578T
[4] = tested on: NCI-H460
[5] = tested on: K562
[6] = tested on: CAKI-1
[7] = tested on: HCT-116
[8] = tested on: SK-MEL-28
[9] = tested on: UO-31
[10] = tested on: RPMI-8226
[11] = tested on: MDA-MB-231
[12] = tested on: MCF7
[13] = tested on: RXF 393
[14] = tested on: IGROV-1
[15] = tested on: SNB-75
[16] = tested on: MDA-N
[17] = tested on: SK-MEL-5
[18] = tested on: HCC 2998
[19] = tested on: HT-29
[20] = tested on: SF-539

| Structure (SMILES) | GI50 [1] | GI50 [2] | GI50 [3] | GI50 [4] | GI50 [5] | GI50 [6] | GI50 [7] | GI50 [8] | GI50 [9] | GI50 [10] | GI50 [11] | GI50 [12] | GI50 [13] | GI50 [14] | GI50 [15] | GI50 [16] | GI50 [17] | GI50 [18] | GI50 [19] | GI50 [20] |
| --- | --- | --- | --- | --- | --- | --- | --- | --- | --- | --- | --- | --- | --- | --- | --- | --- | --- | --- | --- | --- |
| Cc1[nH]c(/C=C2\C(=O)Nc3ccccc32)c(C)c1CCC(=O)O [ORANTINIB] | 23.9 µM (inactive) | 34.1 µM (inactive) | 37.9 µM (inactive) | 31 µM (inactive) | 36.4 µM (inactive) | 22.1 µM (inactive) | 31.1 µM (inactive) | 31.1 µM (inactive) | 32.7 µM (inactive) | 22.8 µM (inactive) | 37.9 µM (inactive) | 28.1 µM (inactive) | 29.1 µM (inactive) | 21.9 µM (inactive) | 12.6 µM (inactive) | 27.2 µM (inactive) | 26.5 µM (inactive) | 35.6 µM (inactive) |  |  |
| CCN(CC)c1ccc2cc(C(N)=O)/c(=N/c3ccc(F)cc3)oc2c1 | 4.65 µM (inactive) | > 100 µM (inactive) | 47.9 µM (inactive) | 6.76 µM (inactive) | > 100 µM (inactive) | 45.9 µM (inactive) | 5.07 µM (inactive) | > 100 µM (inactive) | 26.9 µM (inactive) | > 100 µM (inactive) | 14.5 µM (inactive) | 51.4 µM (inactive) | 22.8 µM (inactive) | 26.7 µM (inactive) | 20.4 µM (inactive) | > 100 µM (inactive) | > 100 µM (inactive) | 59.2 µM (inactive) | 6.95 µM (inactive) |  |
| NC(=O)c1ccc(S(=O)(=NS(=O)(=O)c2ccccc2)c2ccc(C(N)=O)cc2)cc1 | > 100 µM (inactive) | > 100 µM (inactive) | > 100 µM (inactive) | > 100 µM (inactive) | > 100 µM (inactive) | > 100 µM (inactive) | > 100 µM (inactive) | > 100 µM (inactive) | > 100 µM (inactive) | > 100 µM (inactive) | > 100 µM (inactive) | > 100 µM (inactive) | > 100 µM (inactive) | > 100 µM (inactive) | > 100 µM (inactive) | > 100 µM (inactive) | > 100 µM (inactive) | > 100 µM (inactive) | > 100 µM (inactive) | > 100 µM (inactive) |
| Cc1cc2c(Br)cc(Br)c(O)c2nc1C(=O)c1ccccc1 | 14.9 µM (inactive) | > 100 µM (inactive) | > 100 µM (inactive) | 10.6 µM (inactive) | 10.4 µM (inactive) | 55.8 µM (inactive) | 12.4 µM (inactive) | > 62.7 µM (inactive) | 12.2 µM (inactive) | 22.4 µM (inactive) | 20 µM (inactive) | 10.1 µM (inactive) | > 47.5 µM (inactive) | 21 µM (inactive) | > 74.1 µM (inactive) | 16.2 µM (inactive) | 14.5 µM (inactive) | 18.7 µM (inactive) | 28.4 µM (inactive) | 19.1 µM (inactive) |
| CN(C)c1ccc(C(=N/N=C2\C(=O)Nc3ccccc32)c2ccc(N(C)C)cc2)cc1 | 0.0262 µM (active) | 0.938 µM (active) | 0.836 µM (active) | 0.405 µM (active) | 0.196 µM (active) | 0.39 µM (active) | 0.33 µM (active) | 3.17 µM (inactive) | 2.01 µM (inactive) | 0.22 µM (active) | 0.767 µM (active) | 0.266 µM (active) | 0.172 µM (active) | 0.303 µM (active) | 0.214 µM (active) | 0.0614 µM (active) | 0.417 µM (active) | 0.643 µM (active) | 0.348 µM (active) | 0.313 µM (active) |
| NC(C(=O)O)C(O)c1c[nH]cn1 (centres undefined) | > 100 µM (inactive) | > 100 µM (inactive) | > 100 µM (inactive) | > 100 µM (inactive) | > 100 µM (inactive) | > 100 µM (inactive) | > 100 µM (inactive) | > 100 µM (inactive) |  | > 100 µM (inactive) | > 100 µM (inactive) | > 100 µM (inactive) | > 100 µM (inactive) | > 100 µM (inactive) | > 100 µM (inactive) | > 100 µM (inactive) | > 100 µM (inactive) |  | > 100 µM (inactive) | > 100 µM (inactive) |
| CC(NC(=O)C(Cc1c[nH]cn1)NC(=O)C1CCC(=O)N1)C(N)=O (stereo not drawn) ([pGlu]-His-Ala-NH2; configuration not given here) | > 100 µM (inactive) | > 100 µM (inactive) | > 100 µM (inactive) | > 100 µM (inactive) | > 100 µM (inactive) |  | > 100 µM (inactive) | > 100 µM (inactive) | > 100 µM (inactive) | > 100 µM (inactive) | > 100 µM (inactive) | > 100 µM (inactive) | > 100 µM (inactive) | > 100 µM (inactive) | > 100 µM (inactive) | > 100 µM (inactive) | > 100 µM (inactive) | > 100 µM (inactive) | > 100 µM (inactive) |  |
| Cc1ccc([N+](=O)[O-])cc1S(=O)(=O)Nc1ccc(C2=NN(c3ccc([N+](=O)[O-])cc3[N+](=O)[O-])C(c3cccs3)C2)cc1 (centres undefined) | 21 µM (inactive) | 20.7 µM (inactive) | 23.8 µM (inactive) |  | 17.2 µM (inactive) | 25.5 µM (inactive) | 14.9 µM (inactive) | 56.5 µM (inactive) | 23.8 µM (inactive) | 10.9 µM (inactive) | 15 µM (inactive) | 17.3 µM (inactive) | 18.6 µM (inactive) | 16.2 µM (inactive) | 19.5 µM (inactive) | 16.2 µM (inactive) | 11.5 µM (inactive) |  | 25.9 µM (inactive) | 27 µM (inactive) |
| O=c1cccccc1O [TROPOLONE] | 46.7 µM (inactive) | 87.1 µM (inactive) | 91.8 µM (inactive) | 26.5 µM (inactive) | 35.3 µM (inactive) | 83.6 µM (inactive) | 32 µM (inactive) | > 100 µM (inactive) | 80.2 µM (inactive) | 86.9 µM (inactive) | > 100 µM (inactive) | 44 µM (inactive) | 26.5 µM (inactive) | > 100 µM (inactive) | > 100 µM (inactive) | > 100 µM (inactive) | 83 µM (inactive) | 79.8 µM (inactive) | 41.8 µM (inactive) |  |
| O=C1C(Br)=C(Br)C(=O)c2c(O)ccc(O)c21 | 0.0352 µM (active) | 13.9 µM (inactive) | 27.1 µM (inactive) | 16.3 µM (inactive) | 0.596 µM (active) |  | 3.56 µM (inactive) | 2.06 µM (inactive) | 2.79 µM (inactive) | 0.721 µM (active) | 2.64 µM (inactive) | 2.42 µM (inactive) | 2.65 µM (inactive) | 14.7 µM (inactive) | 18.8 µM (inactive) | 2.49 µM (inactive) | 9.14 µM (inactive) | 19.8 µM (inactive) | 3.15 µM (inactive) | 15.9 µM (inactive) |
| C/C=C(/C)C(=O)O[C@H]1C(C)=C[C@]23C(=O)[C@@H](C=C(COC(C)=O)[C@@H](O)[C@]12O)[C@H]1[C@@H](C[C@H]3C)[C@@]1(C)OC(=O)/C(C)=C\C | 2.67 µM (inactive) | 2.38 µM (inactive) | 0.0792 µM (active) | 0.0244 µM (active) | 0.0205 µM (active) | 2.75 µM (inactive) | 2.14 µM (inactive) | 3.69 µM (inactive) | 0.442 µM (active) |  | 3.03 µM (inactive) | 2.35 µM (inactive) | 2.65 µM (inactive) | 3.2 µM (inactive) | 1.52 µM (inactive) | 1.17 µM (inactive) | 0.307 µM (active) | 1.49 µM (inactive) | 0.411 µM (active) | 2.81 µM (inactive) |
| O=C(O)CN1CCNCCN(CC(=O)O)CCNCC1 | 5.14 µM (inactive) | > 85.5 µM (inactive) | > 24.1 µM (inactive) | 8.49 µM (inactive) | 3.85 µM (inactive) | > 100 µM (inactive) | 4.75 µM (inactive) |  | > 100 µM (inactive) | 6.31 µM (inactive) | > 100 µM (inactive) | 28.2 µM (inactive) | > 100 µM (inactive) | 24.3 µM (inactive) | > 21.5 µM (inactive) | 10.9 µM (inactive) | 5.28 µM (inactive) | > 82.2 µM (inactive) | 13.5 µM (inactive) | > 100 µM (inactive) |
| O=C(CCC=C(S(=O)(=O)c1ccccc1)S(=O)(=O)c1ccccc1)c1ccccc1 | 3.01 µM (inactive) | 5.82 µM (inactive) | 5.22 µM (inactive) | 12.9 µM (inactive) | 3.73 µM (inactive) | 5.96 µM (inactive) | 3.42 µM (inactive) | 12.1 µM (inactive) | 6.15 µM (inactive) |  | 8.04 µM (inactive) | 4.47 µM (inactive) | 4.18 µM (inactive) | 12.3 µM (inactive) | 3.61 µM (inactive) | 3.69 µM (inactive) | 6.97 µM (inactive) | 7.66 µM (inactive) | 4.91 µM (inactive) | 2.96 µM (inactive) |
| Cc1cc2nnc(C(N)=O)c(N)c2cc1C | > 100 µM (inactive) | > 100 µM (inactive) | 30.5 µM (inactive) | > 100 µM (inactive) | > 100 µM (inactive) | > 100 µM (inactive) | > 100 µM (inactive) |  | > 100 µM (inactive) | > 100 µM (inactive) | > 100 µM (inactive) | > 100 µM (inactive) |  | > 100 µM (inactive) | 12.9 µM (inactive) | > 100 µM (inactive) | > 100 µM (inactive) | > 100 µM (inactive) | > 100 µM (inactive) | > 100 µM (inactive) |
